These results are taken from US5968910A, “Compositions containing two or three inhibitors of different HIV reverse transcriptases” (priority 1994, dated 1999).

Molecules are shown by their SMILES. Converted amounts (≈) assume the structure as drawn. Where two headings read alike, the source gives them in different places. Bounds are passed on as bounds.

The test system of one assay is HIV-1(IIIB) (WT). Description: microbe, parasite or virus in culture. It counts as cell-based. Particulars: Human immunodeficiency virus 1, IIIB, CCRF-CEM. In outline: (§1)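 CEM cells at 250,000 cells/ml were infected with HIV-1 at 100 CCID50 per ml, then mixed with serial dilutions of test compound. After 4 days at 37° C., cultures were scored for syncytium formation.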

The next assay has as its target HIV-1 RT (WT) (Human immunodeficiency virus type 1 group M subtype B, UniProt P03366). Description: biochemical. Particulars: IC50, anti-HIV-1 RT (WT) activity. The protocol: The reaction mixture (50 μl) contained 50 mM Tris.HCl, pH 7.8, 5 mM dithiothreitol, […] glutathione, 500 μM EDTA, 150 mM KCl, 5 mM MgCl2, 1.25 μg of bovine serum albumin, a fixed concentration of the labeled substrate [2,8-^3 H]dGTP (2.95 μM, 2 μCi), a fixed concentration of the template/primer poly(C).oligo(dG) (0.1 mM), 0.06% Triton X-100, 5 μl of inhibitor solution [containing various concentrations (5-fold dilutions) of the test compounds], and 5 μl of the RT preparation. The reaction mixtures were incubated at 37° C. for 30 min, at which time 100 μl of calf thymus DNA (150 μg/ml), 2 ml of Na4 P2 07 (0.1 M in 1M HCl), and 2 ml of trichloroacetic acid (10%, v/v) were added. The solutions were kept on ice for 30 min, after which the acid-insoluble material was washed and analyzed for radioactivity.
Compounds I, III, IV and V were evaluated for their inhibitory effect on recombinant HIV-1 RT.

Assay [1] has as its system HIV-1/TIBO R82150 (100-Ile). The settings on record: background, Balzarini I/II; cited from earlier work.
A further assay relates to HIV-1/B 101Glu. Description: Sensitivity of mutant HIV-1 strain in CEM cell cultures. It is filed as cell-based. The settings on record: Human immunodeficiency virus 1, CCRF-CEM; Table 5; read-out: EC50. The gist of the method: as §1
In a further assay the test system is HIV-1/Nev (106-Ala). The description is as above. Particulars: Human immunodeficiency virus 1, CCRF-CEM; CEM cells, Table 1; read-out: 50% Effective Concentration. It is filed as cell-based. In outline:
as §1

A further assay deals with HIV-1/III(0.1) 103-Asn. The description is as above. It counts as cell-based. Particulars: Human immunodeficiency virus 1, CCRF-CEM; Table 5; read-out: EC50. The gist of the method:
as §1

The next assay deals with HIV-1/V(0.5) 103-Asn. The assay is described as above. The settings on record: Human immunodeficiency virus 1, CCRF-CEM; Table 5; read-out: EC50. It is filed as cell-based. In outline: as §1
In another assay the test system is HIV-1/Pyr (181-Cys). Described as above. It is filed as cell-based. The settings on record: Human immunodeficiency virus 1, CCRF-CEM; CEM cells, Table 1; read-out: 50% Effective Concentration. In outline:
as §1

In another assay the test system is HIV-1/II(0.1) 100-Ile. Described as above. It counts as cell-based. The settings on record: Human immunodeficiency virus 1, CCRF-CEM; Table 5; read-out: EC50. In outline: as §1
The test system of assay [2] is HIV-1/TIBO R82150 (100-Ile). The assay is described as above. It counts as cell-based. The settings on record: Human immunodeficiency virus 1, CCRF-CEM; CEM cells, Table 1; read-out: 50% Effective Concentration. The gist of the method: as §1
The subject of assay [3] is HIV-1/TSAO-m^3 T (138-Lys). The assay is described as above. The settings on record: Human immunodeficiency virus 1, CCRF-CEM; CEM cells, Table 1; read-out: 50% Effective Concentration. It is filed as cell-based. The gist of the method:
as §1

Assay [4] concerns HIV-1/V(0.1) 101-Ile + 141-Glu. The assay is described as above. The settings on record: Human immunodeficiency virus 1, CCRF-CEM; Table 5; read-out: EC50. It counts as cell-based. In outline: as §1
For assay [5], the system named is HIV-1/TIBO R82913 (103-Asn). The description is as above. The settings on record: Human immunodeficiency virus 1, CCRF-CEM; CEM cells, Table 1; read-out: 50% Effective Concentration. It is filed as cell-based. The gist of the method:
as §1

Another assay relates to HIV-1/I(0.1) 103-Asn. Described as above. It counts as cell-based. Particulars: Human immunodeficiency virus 1, CCRF-CEM; Table 5; read-out: EC50. In outline:
as §1

With `CC(C)=CCN1Cc2cc(Cl)cc3[nH]c(=S)n(c23)C[C@@H]1C` [TIBO R82913, reference compound], the EC50 in the assay with HIV-1(IIIB) (WT) (CEM cells, Table 1, read-out: 50% Effective Concentration) was 0.016 µg/mL (≈ 0.0497 µM); with HIV-1(IIIB) (WT) (HIV-1 (III8), Table 5, read-out: EC50), 0.02 µg/mL (≈ 0.0621 µM); in the assay with HIV-1/B 101Glu it was over 2.5 µg/mL; in the assay with HIV-1/Nev (106-Ala) it was 0.5 µg/mL (≈ 1.55 µM); in the assay with HIV-1/III(0.1) 103-Asn, 0.23 µg/mL (≈ 0.715 µM); in the assay on HIV-1/V(0.5) 103-Asn, 5 µg/mL (≈ 15.5 µM). Besides, the EC50 with HIV-1/Pyr (181-Cys) is 2 µg/mL (≈ 6.21 µM); in the assay with HIV-1/II(0.1) 100-Ile, at least 5 µg/mL; in [2], 1.75 µg/mL (≈ 5.44 µM); in assay [3], 0.3 µg/mL (≈ 0.932 µM); in assay [4], 0.16 µg/mL (≈ 0.497 µM); in [5], 4.3 µg/mL (≈ 13.4 µM). Besides, the EC50 in the assay on HIV-1/I(0.1) 103-Asn was determined as 1.1 µg/mL (≈ 3.42 µM). Further, the IC50 on HIV-1 RT (WT) was 2050 nM. In addition, the “resistance of HIV-1 strains containing the 100 Leu→Ile mutation in their RT” value in assay [1] is “resistant”.
